Results published in patent US20060106028A1, “Polycyclic aromatics and derivatives thereof and processes for their preparation” (priority 2004, published 2006).
Converted amounts (≈) assume the structure as drawn.

How the values were obtained:
Format in all cases: cell-based
[1] = system: Escherichia coli (ATCC™ 25922); assay: Antibacterial activity (NCCLS M7-A5); settings: MH medium
36 cancer cell lines = assay: In vitro cytotoxic activity, mean of all cell lines of the panel; settings: mean over the 36 cell lines
Method: (§1) Culture conditions and activity evaluations of Compound 1 against 36 cancer cell lines were done as described below. Results were expressed as the concentration of drug which inhibits 50% of the cell growth (IC50, calculated using the formula: [Ti/C]×100=−50).
(§2) The compound was dissolved at 10 mM in DMSO. Dilution in vehicle to concentrations of 30, 10, 3, 1 and 0.3 μM were prepared immediately before assays. Depending on the cell line's growth characteristics, 4000-10000 cells were plated in two 96-wells pates (day 0) and incubated for 16 hours. The following day, propidium iodide was added to one of the two plates. Test compound was added to the second plate, as well as vehicle control, and cells further incubated for 96 hours. The compound was tested at each concentration and in triplicates. The equivalent cell number was determined after adding propidium iodide by measuring the signal by fluorescence (Ti for test article, C for control).

SF268 (CNS) [2] = assay: In vitro tumor growth inhibition (GI50, propidium iodide); settings: Homo sapiens; SF-268; 96 hrs
[3] = system: Enterococcus faecalis VRE-1 (ATCC™ 29212); assay: Antibacterial activity, MIC (NCCLS M7-A5); settings: BHI+ medium, 35° C., 16 to 20 hours
514L (Melanoma) = assay: In vitro cytotoxic activity, 36 tumor cell lines panel; settings: 96 hours
Method: as §1, §2

393NL (Renal) = assay: as above; settings: 96 hours
Method: as §1, §2

1218L (Bladder) = assay: as above; settings: 96 hours
Method: as §1, §2

DU145 (Prostate) = assay: as above; settings: Homo sapiens, DU-145, 96 hours
Method: as §1, §2

536L (Head & Neck) = assay: as above; settings: 96 hours
Method: as §1, §2

629L (Lung) = assay: as above; settings: 96 hours
Method: as §1, §2

PC3M (Prostate) = assay: as above; settings: Homo sapiens, PC-3M, 96 hours
Method: as §1, §2

526L (Lung) = assay: as above; settings: 96 hours
Method: as §1, §2

SF268 (CNS) [4] = assay: as above; settings: Homo sapiens, SF-268, 96 hours
Method: as §1, §2

HT29 (Colon) = assay: as above; settings: Homo sapiens, HT-29, 96 hours
Method: as §1, §2

22RV1 (Prostate) = assay: as above; settings: Homo sapiens, 96 hours
Method: as §1, §2

289L (Lung) = assay: as above; settings: 96 hours
Method: as §1, §2

394NL (Melanoma) = assay: as above; settings: 96 hours
Method: as §1, §2

1121L (Lung) = assay: as above; settings: 96 hours
Method: as §1, §2

MCF7 (Mammary) = assay: as above; settings: Homo sapiens, 96 hours
Method: as §1, §2

T24 (Bladder) = assay: as above; settings: 96 hours
Method: as §1, §2

1657L (Pancreas) = assay: as above; settings: 96 hours
Method: as §1, §2

276L (Melanoma) = assay: as above; settings: 96 hours
Method: as §1, §2

PANC1 (Pancreas) = assay: as above; settings: Homo sapiens, PANC-1, 96 hours
Method: as §1, §2

H460 (Lung) = assay: as above; settings: Homo sapiens, NCI-H460, 96 hours
Method: as §1, §2

462NL (Melanoma) = assay: as above; settings: 96 hours
Method: as §1, §2

1781L (Renal) = assay: as above; settings: 96 hours
Method: as §1, §2

251L (Gastric) = assay: as above; settings: 96 hours
Method: as §1, §2

1619L (Ovarian) = assay: as above; settings: 96 hours
Method: as §1, §2

899L (Ovarian) = assay: as above; settings: 96 hours
Method: as §1, §2

1752L (Pleuramesot.) = assay: as above; settings: 96 hours
Method: as §1, §2

HCT116 (Colon) = assay: as above; settings: Homo sapiens, HCT-116, 96 hours
Method: as §1, §2

486L (Renal) = assay: as above; settings: 96 hours
Method: as §1, §2

401NL (Mammary) = assay: as above; settings: 96 hours
Method: as §1, §2

1138L (Uterus) = assay: as above; settings: 96 hours
Method: as §1, §2

944L (Renal) = assay: as above; settings: 96 hours
Method: as §1, §2

OVCAR3 (Ovarian) = assay: as above; settings: Homo sapiens, OVCAR-3, 96 hours
Method: as §1, §2

498NL (CNS) = assay: as above; settings: 96 hours
Method: as §1, §2

520L (Melanoma) = assay: as above; settings: 96 hours
Method: as §1, §2

529L (Lung) = assay: as above; settings: 96 hours
Method: as §1, §2

LNCAP (Prostate) = assay: as above; settings: Homo sapiens, 96 hours
Method: as §1, §2

SMILES: CCC(C)c1cc2c(=O)c3ccc4c(OC)c5c(=O)c6c(O)ccc(O)c6c(=O)c5c(O)c4c3c(=O)c2c(=O)n1CC(=O)N1CC(C(=O)O)NC(=O)C1C (stereo not shown) [Compound 1]
- Antibacterial activity [1]: inactive
- IC50 (36 cancer cell lines): 9.34 µM
- GI50 (SF268 (CNS) [2]): 3.36 µM
- MIC [3]: 0.063 µg/mL (≈ 0.0854 µM)
- IC50 (514L (Melanoma)): 10.7 µM
- IC50 (393NL (Renal)): 9.08 µM
- IC50 (1218L (Bladder)): 18.4 µM
- IC50 (DU145 (Prostate)): < 0.41 µM
- IC50 (536L (Head & Neck)): 22.5 µM
- IC50 (629L (Lung)): 11.9 µM
- IC50 (PC3M (Prostate)): 0.91 µM
- IC50 (526L (Lung)): 3.09 µM
- IC50 (SF268 (CNS) [4]): 1.52 µM
- IC50 (HT29 (Colon)): 5.77 µM
- IC50 (22RV1 (Prostate)): 1.65 µM
- IC50 (289L (Lung)): 5.04 µM
- IC50 (394NL (Melanoma)): 9.99 µM
- IC50 (1121L (Lung)): 0.63 µM
- IC50 (MCF7 (Mammary)): 4.37 µM
- IC50 (T24 (Bladder)): 5.15 µM
- IC50 (1657L (Pancreas)): 20 µM
- IC50 (276L (Melanoma)): 8.26 µM
- IC50 (PANC1 (Pancreas)): 14.4 µM
- IC50 (H460 (Lung)): 6.08 µM
- IC50 (462NL (Melanoma)): 24.7 µM
- IC50 (1781L (Renal)): 7.54 µM
- IC50 (251L (Gastric)): 0.72 µM
- IC50 (1619L (Ovarian)): 19.6 µM
- IC50 (899L (Ovarian)): 34.9 µM
- IC50 (1752L (Pleuramesot.)): 4.23 µM
- IC50 (HCT116 (Colon)): 8.24 µM
- IC50 (486L (Renal)): 20.7 µM
- IC50 (401NL (Mammary)): < 0.41 µM
- IC50 (1138L (Uterus)): < 0.41 µM
- IC50 (944L (Renal)): 14.9 µM
- IC50 (OVCAR3 (Ovarian)): 26.2 µM
- IC50 (498NL (CNS)): 3.7 µM
- IC50 (520L (Melanoma)): 7.25 µM
- IC50 (529L (Lung)): 2.2 µM
- IC50 (LNCAP (Prostate)): 0.72 µM
